Data from ChEMBL document CHEMBL1138874, “Design and synthesis of a series of novel pyrazolopyridines as HIF-1alpha prolyl hydroxylase inhibitors” (Bioorg Med Chem Lett, 2006).

The molecules below were run on HEK293 (assay: cells). Settings: Homo sapiens.

Row | SMILES | EC50 [µM]
1 | O=C(O)c1cnn(-c2ccc(COCc3ccc(Cl)cc3)cn2)c1 | 7.4
2 | O=C(O)c1cnn(-c2ccc(COCc3cccc(Cl)c3)cn2)c1 | 3.8
3 | O=C(O)c1cnn(-c2ccc(COCc3ccccc3)cn2)c1 | 25
4 | COc1ccc(COCc2ccc(-n3cc(C(=O)O)cn3)nc2)cc1 | 1
5 | N#Cc1ccccc1-c1ccc(COCc2ccc(-n3cc(C(=O)O)cn3)nc2)cc1 | > 100
6 | COc1cccc(COCc2ccc(-n3cc(C(=O)O)cn3)nc2)c1 | > 100
7 | O=C(O)c1cnn(-c2ccc(COCc3cccc(C(F)(F)F)c3)cn2)c1 | 11
